pEC50, pIC50: −log10 of the molar value. Active and inactive are the calls of the source. The rule behind the calls is not given here.
Tests used:
RPMI-8226 [1] = assay: cells; settings: Homo sapiens, RPMI-8226, 72 h
[2] = target: T1, Geranylgeranyl pyrophosphate synthase (Homo sapiens, UniProt O95749); assay: Inhibition of N-terminal His6 tagged human GGPPS expressed in Escherichia coli BL21(DE3) cells in presence of FPP and [14C]IPP by scintillation counting analysis
T1 sequence (O95749 whole entry): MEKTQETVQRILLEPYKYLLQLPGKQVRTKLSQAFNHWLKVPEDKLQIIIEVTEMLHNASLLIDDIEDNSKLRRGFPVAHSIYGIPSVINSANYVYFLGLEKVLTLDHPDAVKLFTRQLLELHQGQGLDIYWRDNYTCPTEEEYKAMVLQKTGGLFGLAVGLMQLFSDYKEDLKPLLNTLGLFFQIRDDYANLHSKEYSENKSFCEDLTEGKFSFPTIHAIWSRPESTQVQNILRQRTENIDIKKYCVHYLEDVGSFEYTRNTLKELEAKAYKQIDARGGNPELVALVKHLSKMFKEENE

[3] = target: T2, Farnesyl pyrophosphate synthase (Homo sapiens) (UniProt P14324); assay: Inhibition of N-terminally His6-tagged recombinant human FPPS expressed in Escherichia coli BL21(DE3) cells using […] and [14C]IPP as substrate at 1 uM preincubated for 10 mins followed by substrate addition by scintillation counting analysis relative to control
T2 sequence (whole entry): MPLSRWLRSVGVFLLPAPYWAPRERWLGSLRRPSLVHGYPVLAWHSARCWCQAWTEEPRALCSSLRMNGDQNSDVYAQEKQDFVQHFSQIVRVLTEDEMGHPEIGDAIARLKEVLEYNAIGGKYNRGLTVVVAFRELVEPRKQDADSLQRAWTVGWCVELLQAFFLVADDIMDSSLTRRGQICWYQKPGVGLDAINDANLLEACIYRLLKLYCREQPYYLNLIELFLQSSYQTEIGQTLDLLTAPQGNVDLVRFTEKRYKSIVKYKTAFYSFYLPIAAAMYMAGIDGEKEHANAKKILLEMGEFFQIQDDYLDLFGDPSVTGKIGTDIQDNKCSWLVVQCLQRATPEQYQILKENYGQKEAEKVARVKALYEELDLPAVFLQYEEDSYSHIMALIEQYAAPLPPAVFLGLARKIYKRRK

RPMI-8226 [4] = assay: Antiproliferative activity against human RPMI-8226 cells harboring KRAS G12A mutant at 0.1 to 10000 nM incubated for 72 hrs by MTS assay; format: functional, cell-based; settings: dose 0.1-10000 nM
Mus musculus = species on record: Mus musculus; assay: Cytotoxicity against KPC mouse pancreatic cancer organoid ccmT4 at 1 uM incubated for 72 hrs by CellTiter-Glo luminescence based analysis; format: functional, tissue-based
JJN-3 = assay: Antiproliferative activity against human JJN-3 cells harboring wild type KRAS at 0.1 to 10000 nM incubated for 72 hrs by MTS assay; format: functional, cell-based; settings: dose 0.1-10000 nM
KMS-12-PE = assay: Antiproliferative activity against human KMS-12-PE cells harboring wild type KRAS at 0.1 to 10000 nM incubated for 72 hrs by MTS assay; format: functional, cell-based; settings: dose 0.1-10000 nM
RPMI-8226 [5] = assay: Induction of ER stress in human RPMI-8226 cells at 1 uM; format: functional, cell-based
KMS-28PE = assay: Antiproliferative activity against human KMS-28-PE cells harboring KRAS G12A mutant at 0.1 to 10000 nM incubated for 72 hrs by MTS assay; format: functional, cell-based; settings: dose 0.1-10000 nM
[6] = Cytotoxicity against wild type mouse normal ductal organoid [N(10128)] at 1 uM incubated for 72 hrs by CellTiter-Glo luminescence based analysis; format: toxicity, tissue-based
[7] = target: T3, Ras-related protein Rap-1A (Homo sapiens) (UniProt P62834); assay: Inhibition of RAP-1A prenylation in human MIA PaCa-2 cells incubated for 48 hrs by Western blot analysis; format: cell-based; settings: dose 10-1000 nM
T3 sequence (whole entry): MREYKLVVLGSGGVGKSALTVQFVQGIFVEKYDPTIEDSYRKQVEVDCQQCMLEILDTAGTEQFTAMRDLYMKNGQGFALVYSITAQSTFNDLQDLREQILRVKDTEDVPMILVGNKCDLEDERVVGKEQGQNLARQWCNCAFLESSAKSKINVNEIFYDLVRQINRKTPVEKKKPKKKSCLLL

[8] = Cytotoxicity against Normal human bronchial epithelial cells assessed as inhibition of cell growth at 10 uM incubated for 72 hrs by MTS assay relative to control; format: toxicity, cell-based
[9] = target: T3, Ras-related protein Rap-1A (Homo sapiens); assay: Inhibition of RAP-1A prenylation in human HCT-116 cells incubated for 48 hrs by Western blot analysis; format: cell-based; settings: dose 10-1000 nM
HCT-116 [10] = assay: Antiproliferative activity against human HCT-116 cells assessed as inhibition of cell growth at 1 uM incubated for 72 hrs by MTS assay; format: functional, cell-based
MIA PaCa-2 [11] = assay: Antiproliferative activity against human MIA PaCa-2 cells assessed as inhibition of cell growth at 1 uM incubated for 72 hrs by MTS assay; format: functional, cell-based
MIA PaCa-2 [12] = assay: cells; settings: Homo sapiens, MIA PaCa-2, 72 h
[13] = Cytotoxicity against human IMR-90 cells assessed as inhibition of cell growth incubated for 72 hrs by MTS assay; format: toxicity, cell-based
[14] = Cytotoxicity against Normal human bronchial epithelial cells assessed as inhibition of cell growth incubated for 72 hrs by MTS assay; format: toxicity, cell-based
HCT-116 [15] = assay: cells; settings: Homo sapiens, HCT-116, 72 h
[16] = Cytotoxicity against wild type mouse normal ductal organoid [N(10128)] at low nM concentrations incubated for 72 hrs by CellTiter-Glo luminescence based analysis; format: toxicity, tissue-based

Row | SMILES | pEC50 (RPMI-8226 [1]) | pIC50 [2] | also measured
1 | O=C(Nc1ccc(C(F)(F)F)cc1)c1cccc(-c2nc(NC(P(=O)(O)O)P(=O)(O)O)c3ccsc3n2)c1 | 6.80 | 7.92 | 
2 | CC(C)n1ncc2c(NC(P(=O)(O)O)P(=O)(O)O)nc(-c3cccc(C(=O)Nc4ccc(F)cc4)c3)nc21 | < 6.00 | 7.52 | 
3 | COc1ccc(NC(=O)c2cccc(-c3nc(NC(P(=O)(O)O)P(=O)(O)O)c4cn(C)nc4n3)c2)cc1F | 6.28 | 7.25 | inhibition [3]: 15%
4 | COc1ccc(NC(=O)c2cccc(-c3nc(NC(P(=O)(O)O)P(=O)(O)O)c4ccsc4n3)c2)cc1F |  |  | Activity (RPMI-8226 [4]): Active; Activity (Mus musculus): Active; Activity (JJN-3): Active; Activity (KMS-12-PE): Active; Activity (RPMI-8226 [5]): Active; Activity (KMS-28PE): Active; Activity [6]: Non-Toxic; inhibition [7]: Dose-Dependent Effect; inhibition at 72 h, 10 µM [8]: ~30%; inhibition [9]: Dose-Dependent Effect
5 | O=C(Nc1ccc(C(F)(F)F)cc1)c1cccc(-c2nc(NC(P(=O)(O)O)P(=O)(O)O)c3cn[nH]c3n2)c1 | < 6.00 | 8.10 | 
6 | Cn1ncc2c(NC(P(=O)(O)O)P(=O)(O)O)nc(-c3cccc(C(=O)Nc4ccc(F)cc4)c3)nc21 | 6.36 | 7.51 | 
7 | CCn1ncc2c(NC(P(=O)(O)O)P(=O)(O)O)nc(-c3cccc(C(=O)Nc4ccc(OC)c(F)c4)c3)nc21 | < 6.00 | 7.40 | Activity (HCT-116 [10]): inactive; inhibition [3]: < 10%; Activity (MIA PaCa-2 [11]): inactive
8 | COc1ccc(NC(=O)c2cccc(-c3nc(NC(P(=O)(O)O)P(=O)(O)O)c4cnn(C(C)C)c4n3)c2)cc1F | < 6.00 | 7.39 | Activity (HCT-116 [10]): inactive; inhibition [3]: < 10%; Activity (MIA PaCa-2 [11]): inactive
9 | Cn1cnc2c(NC(P(=O)(O)O)P(=O)(O)O)nc(-c3cccc(C(=O)Nc4ccc(F)cc4)c3)nc21 | 6.17 | 7.39 | 
10 | O=C(Nc1ccc(F)cc1)c1cccc(-c2nc(NC(P(=O)(O)O)P(=O)(O)O)c3ccsc3n2)c1 | 6.92 | 7.74 | 
11 | COc1cccc2c1C(=O)c1c(O)c3c(c(O)c1C2=O)C[C@@](O)(C(=O)CO)C[C@@H]3O[C@H]1C[C@H](N)[C@H](O)[C@H](C)O1 [DOXORUBICIN] |  |  | Activity (Mus musculus): Active; pEC50 (MIA PaCa-2 [12]): 6.89; EC50 at 72 h [13]: 360 nM; Activity [6]: Toxic; EC50 at 72 h [14]: 450 nM; pEC50 (HCT-116 [15]): 7.39
12 | O=C(Nc1ccc(F)cc1)c1cccc(-c2nc(NC(P(=O)(O)O)P(=O)(O)O)c3cn[nH]c3n2)c1 | < 6.00 | 7.41 | 
13 | Cn1cnc2c(NC(P(=O)(O)O)P(=O)(O)O)nc(-c3cccc(C(=O)Nc4ccc(C(F)(F)F)cc4)c3)nc21 | 6.29 | 7.89 | 
14 | CCn1ncc2c(NC(P(=O)(O)O)P(=O)(O)O)nc(-c3cccc(C(=O)Nc4ccc(F)cc4)c3)nc21 | < 6.00 | 7.54 | 
15 | Nc1ccn([C@@H]2O[C@H](CO)[C@@H](O)C2(F)F)c(=O)n1 [GEMCITABINE] |  |  | pEC50 (MIA PaCa-2 [12]): 8.70; Activity [16]: Toxic; pEC50 (HCT-116 [15]): 8.40
16 | COc1ccc(NC(=O)c2cccc(-c3nc(NC(P(=O)(O)O)P(=O)(O)O)c4cn[nH]c4n3)c2)cc1F | 6.19 | 7.60 | Activity (HCT-116 [10]): inactive; inhibition [3]: 10%; Activity (MIA PaCa-2 [11]): inactive
17 | COc1ccc(NC(=O)c2cccc(-c3nc(NC(P(=O)(O)O)P(=O)(O)O)c4ncn(C)c4n3)c2)cc1F | 6.77 | 7.24 | Activity (HCT-116 [10]): inactive; inhibition [3]: < 10%; Activity (MIA PaCa-2 [11]): inactive
18 | CCn1ncc2c(NC(P(=O)(O)O)P(=O)(O)O)nc(-c3cccc(C(=O)Nc4ccc(C(F)(F)F)cc4)c3)nc21 | < 6.00 | 7.52 | 
19 | CCn1cc2c(NC(P(=O)(O)O)P(=O)(O)O)nc(-c3cccc(C(=O)Nc4ccc(OC)c(F)c4)c3)nc2n1 | 6.26 | 7.17 | 
20 | COc1ccc(NC(=O)c2cccc(-c3nc(NC(P(=O)(O)O)P(=O)(O)O)c4cnn(C)c4n3)c2)cc1F | 6.82 | 7.32 | Activity (HCT-116 [10]): inactive; inhibition [3]: < 10%; Activity (MIA PaCa-2 [11]): inactive
21 | CC(C)n1ncc2c(NC(P(=O)(O)O)P(=O)(O)O)nc(-c3cccc(C(=O)Nc4ccc(C(F)(F)F)cc4)c3)nc21 | < 6.00 | 7.70 | 
